# Source: patent US8158828B2, “Nuclear receptor binding agents” (priority 2005, dated 2012)
# Read-outs that look alike come from different tables or passages of the source.
# Legend:
# [1] = biological target: T1, ER-α (Rattus norvegicus, UniProt P06211); experiment: ER-α transactivation, ERE-LUC in COS or 293 cells; format: cell-based; design: % estardiol activity, ER-α: dose or concentration left out as unconfirmed; conditions: for EC50: ER alpha agonists; for IC50: ER alpha antagonists
# T1 sequence (P06211 1-600): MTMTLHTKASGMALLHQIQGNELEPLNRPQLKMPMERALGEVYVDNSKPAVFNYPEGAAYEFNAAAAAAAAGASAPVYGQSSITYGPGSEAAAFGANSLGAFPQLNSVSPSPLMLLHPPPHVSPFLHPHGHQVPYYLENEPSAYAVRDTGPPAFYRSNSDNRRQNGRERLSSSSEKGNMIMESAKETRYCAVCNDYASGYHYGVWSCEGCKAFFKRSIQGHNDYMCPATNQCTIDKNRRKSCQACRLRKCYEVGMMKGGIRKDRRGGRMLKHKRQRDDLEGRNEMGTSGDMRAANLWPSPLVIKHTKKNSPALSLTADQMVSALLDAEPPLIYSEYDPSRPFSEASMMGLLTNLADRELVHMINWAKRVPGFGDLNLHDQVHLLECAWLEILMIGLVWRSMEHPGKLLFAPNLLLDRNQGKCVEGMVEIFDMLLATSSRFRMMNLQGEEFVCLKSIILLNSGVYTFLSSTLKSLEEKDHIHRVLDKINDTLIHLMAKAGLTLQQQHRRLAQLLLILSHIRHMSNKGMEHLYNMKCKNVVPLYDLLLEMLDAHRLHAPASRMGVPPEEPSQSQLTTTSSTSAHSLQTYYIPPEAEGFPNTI
# Procedure: FIG. 1: Effects of the indicated compounds on ER-α transactivation. COS or 293 cells plated in DME without phenol red+10% charcoal stripped fetal bovine serum (csFBS) at 90,000 cells per well of 24 well plates were transfected with 0.25 μg ERE-LUC, 0.02 μg CMV-LUC (Renilla) and 25 ng of ER-α by lipofectamine. Twenty four hours after transfection, the cells were treated as indicated in the figure, harvested 48 hrs after transfection and were assayed for firefly and renilla luciferase.
# FIG. 5: Effect of the indicated compounds on ER-α transactivation. COS or 293 cells plated in DME without phenol red+10% csFBS at 90,000 cells per well of a 24 well plate were transfected with 0.25 μg ERE-LUC, 0.02 μg CMV-LUC (Renilla) and […] of ER-α by lipofectamine. Twenty four hours after transfection, the cells were treated as indicated in the figure, harvested 48 hrs after transfection and were assayed for firefly and renilla luciferase.
# FIG. 9: Effect of the indicated compounds on ER-α transactivation. COS or 293 cells plated in DME without phenol red+10% csFBS per well of a 24 well plate were transfected with 0.25 μg ERE-LUC, 0.02 μg CMV-LUC (Renilla) and 25 ng of ER-α by lipofectamine. Twenty four hours after transfection, the cells were treated as indicated in the figure, harvested 48 hrs after transfection and were assayed for firefly and renilla luciferase.
# Also 25 ng of ER-α (FIGS. 1, 5, and 9), 50 ng of ER-β (FIGS. 2, 6 and 10) or 12.5 ng of AR (FIG. 3) were introduced by lipofectamine. All the receptors were cloned from rat tissue into the PCR3.1 vector backbone. […] Cells were harvested 48 hrs after transfection, and assayed for firefly and Renilla luciferase activity.
# Also 25 ng of ER-α), 50 ng of ER-β or 12.5 ng of AR were introduced by lipofectamine. All the receptors were cloned from rat tissue into the PCR3.1 vector backbone. […] Cells were harvested 48 hrs after transfection, and assayed for firefly and Renilla luciferase activity.
# [2] = biological target: T2, ER-β (Rattus norvegicus, UniProt Q62986); experiment: ER-β transactivation, ERE-LUC in COS or 293 cells; format: cell-based; design: % estardiol activity, ER-β: dose or concentration left out as unconfirmed; conditions: for ER-β LUC expression, compound alone: COS or 293 cells
# T2 construct: expressed in transfected cells; host or cells: COS or 293 cells
# Procedure: FIG. 2: Effect of the indicated compounds on ER-β transactivation. COS or 293 cells plated in DME without phenol red+10% csFBS at 90,000 cells per well of a 24 well plate were transfected with 0.25 μg ERE-LUC, 0.02 μg CMV-LUC (Renilla) and 50 ng of ER-β by lipofectamine. Twenty four hours after transfection, the cells were treated as indicated in the figure, harvested 48 hrs after transfection and were assayed for firefly and renilla luciferase.
# FIG. 6: Effect of the indicated compounds on ER-β transactivation. COS or 293 cells plated in DME without phenol red+10% csFBS at 90,000 cells per well of a 24 well plate were transfected with 0.25 μg ERE-LUC, 0.02 μg CMV-LUC (Renilla) and 50 ng of ER-β by lipofectamine. Twenty four hours after transfection, the cells were treated as indicated in the figure, harvested 48 hrs after transfection and assayed for firefly and renilla luciferase.
# FIG. 10: Effect of the indicated compounds on ER-β transactivation. COS or 293 cells plated in DME+10% csFBS at 90,000 cells per well of a 24 well plate were transfected with 0.25 μg ERE-LUC, 0.02 μg CMV-LUC (Renilla) and 50 ng of ER-β by lipofectamine. Twenty four hours after transfection, the cells were treated as indicated in the figure, harvested 48 hrs after transfection and were assayed for firefly and renilla luciferase.
# (§1) All the receptors were cloned from rat tissue into the PCR3.1 vector backbone. […] Cells were harvested 48 hrs after transfection, and assayed for firefly and Renilla luciferase activity.
# as §1
# [3] = Metabolic stability in human liver microsomes; conditions: 1 μM substrate, 0.5 mg/mL microsomes
# Procedure: Each substrate or reference control was dissolved at a concentration of 10 mM in DMSO, from which a 5 μM spiking solution was prepared by dilution in water. Substrates (1 μM) were incubated in the presence of human liver microsomes (Xenotech LLC, Kansas City Mo.) at 0.5 mg/mL fortified with an NADPH regenerating system at 37° C. and pH 7.4. The NADPH regenerating system consisted of glucose-6-phosphate dehydrogenase (1 units/mL) in 0.05M K2HPO4. Duplicate incubations were performed in 96-well polypropylene cluster tubes in a final volume of 250 μL per reaction. At 0, 2, 4, 6, 10, 30, and 60 minutes a stop solution (300 μL acetonitrile) was added to aliquots of the reaction mixture. Precipitated protein was removed by centrifugation (3000 rpm for 15 minutes) and the supernatants were transferred to clean 96-well plates for analysis.
# The samples were injected onto a Phenomenex Luna hexylphenyl 50×2 mm i.d. 5 uM, column fitted with a guard column. An isocratic mobile phase consisting of 50% acetonitrile and 0.1% formic acid in water was used at a flow rate of 0.3 mL/min. The protonated molecular ion (M+H)^+ of the analyte was monitored by MDS/Sciex API 4000QTrap triple quadrupole mass spectrometer using electrospray positive mode ionization with a temperature of 500° C. and a spray voltage of 4000V. Total analysis time was 1.5 min per sample.
# Metabolic stability was defined as the amount of substrate metabolized by the incubation with hepatic microsomes and expressed as a percentage of the initial amount of substrate (% remaining) based on peak area. Initial substrate concentration for each analyte was 1 μM. The initial peak area of each substrate was determined at time zero and metabolic stability was assessed based on the change in analyte peak area from time 0 min to a single fixed timepoint for each sample (2-60 min, representative timepoints are shown in Table 2 below).
# [4] = ER beta agonists, read-out: EC50 (ER-β)
# T2 sequence (Q62986 whole entry): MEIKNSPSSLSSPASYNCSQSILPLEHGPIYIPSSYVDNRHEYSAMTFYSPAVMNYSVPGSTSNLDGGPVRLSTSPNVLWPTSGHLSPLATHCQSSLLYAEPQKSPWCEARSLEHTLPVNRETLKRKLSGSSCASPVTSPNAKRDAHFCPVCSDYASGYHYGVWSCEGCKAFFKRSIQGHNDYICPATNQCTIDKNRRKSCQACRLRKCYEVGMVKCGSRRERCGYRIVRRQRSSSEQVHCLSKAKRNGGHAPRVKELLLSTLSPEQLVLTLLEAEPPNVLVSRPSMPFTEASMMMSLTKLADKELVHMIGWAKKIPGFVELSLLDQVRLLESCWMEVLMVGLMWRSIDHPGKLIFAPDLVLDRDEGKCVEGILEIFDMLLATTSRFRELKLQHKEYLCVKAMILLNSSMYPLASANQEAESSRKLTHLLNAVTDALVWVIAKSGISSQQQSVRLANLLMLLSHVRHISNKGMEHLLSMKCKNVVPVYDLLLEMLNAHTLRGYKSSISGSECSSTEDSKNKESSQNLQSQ
compound,measurement,setting,value
"O=C(c1cccc(O)c1)N(c1ccc(O)cc1)c1ccc(O)cc1 [Compound 3b, 3-hydroxy-N-bis-(4-hydroxyphenyl)-benzamide]",EC50,[1],10 nM
"O=C(c1ccccc1)N(c1ccccc1)c1ccc(O)cc1 [Compound 3g, N-(4-hydroxyphenyl)-N-phenyl-benzamide]","ER-β LUC expression, compound alone",[2],most potent in stimulating ER-β
same,"% estardiol activity, ER-α",[1],62.5%
"O=C(c1ccc(O)cc1)N(c1ccccc1)c1ccc(O)cc1 [Compound 3i, 4-hydroxy-N-(4-hydroxyphenyl)-N-phenyl-benzamide]","ER-β LUC expression, compound alone",[2],most potent in stimulating ER-β
same,"% estardiol activity, ER-α",[1],77.8%
same,"ER-α activity (luciferase expression), compound alone",[1]; COS or 293 cells,most potent in stimulating ER-α
"O=C(c1ccc(O)cc1)N(c1ccccc1)c1cccc(O)c1 [Compound 3j, 4-hydroxy-N-(3-hydroxyphenyl)-N-phenyl-benzamide]","% estardiol activity, ER-α",[1],62%
"O=C(c1ccc(F)cc1)N(c1ccc(O)cc1)c1ccc(O)cc1 [Compound 3k, N,N-bis(4-hydroxyphenyl)-4-fluoro-benzamide]",% Remaining 0 min,[3]; 0 min,100%
same,% Remaining 10 min,[3]; 10 min,119%
same,% Remaining 30 min,[3]; 30 min,120%
same,% Remaining 60 min,[3]; 60 min,94%
same,EC50,[1],12 nM
"O=C(c1ccc(O)cc1)N(c1ccc(O)cc1)c1ccc(-c2ccccc2)cc1 [Compound 3v, N-biphenyl-4-yl-4-hydroxy-N-(4-hydroxyphenyl)-benzamide]",EC50,[1],22.4 nM
"Cl.O=C(c1cccc(OCCN2CCCCC2)c1)N(c1ccccc1)c1ccccc1 [Compound 4d, N,N-diphenyl-[3-(2-piperidinylethoxy)]-benzamide hydrochloride]","% estardiol activity, ER-β",[2],30.7%
same,"% estardiol activity, ER-α",[1],16.8%
"Cc1ccc(C(=O)N(c2ccc(O)cc2)c2ccc(O)cc2)cc1C [Compound 10d, N,N-bis(4-hydroxyphenyl)-3,4-dimethylbenzamide]",EC50,[2]; [4],85 nM
same,"% estardiol activity, ER-α",[1],21.4%
"O=C(c1ccc(O)c(F)c1)N(c1ccccc1)c1ccc(O)cc1 [Compound 10f, 3-fluoro-4-hydroxy-N-(4-hydroxyphenyl)-N-phenylbenzamide]",EC50,[2],42 nM
same,"% estardiol activity, ER-α",[1],85%
"Cc1cccc(C(=O)N(c2ccc(O)cc2)c2ccc(O)cc2)c1C [Compound 10j, N,N-bis(4-hydroxyphenyl)-2,3-dimethylbenzamide]",IC50,[2],20 nM
"CCCc1ccc(C(=O)N(c2ccc(O)cc2)c2ccc(O)cc2)cc1 [Compound 10l, N,N-bis(4-hydroxyphenyl)-4-propylbenzamide]",EC50,[2],27 nM
same,"% estardiol activity, ER-α",[1],32%
"O=C(c1ccc(O)c(O)c1)N(c1ccc(O)cc1)c1ccc(O)cc1 [Compound 10m, 3,4-dihydroxy-N,N-bis(4-hydroxyphenyl)-benzamide]",IC50,[1],< 10 nM
"Cc1cc(C(=O)N(c2ccc(O)cc2)c2ccc(O)cc2)ccc1O [Compound 10n, 4-hydroxy-N,N-bis(4-hydroxyphenyl)-3-methylbenzamide]",IC50,"[2]; ER beta antagonist, read-out: IC50 (ER-β)",47 nM
"CCCc1ccc(C(=O)N(c2ccc(O)cc2)c2ccc(OCCN3CCCCC3)cc2)cc1 [Compound 10o, N-(4-hydroxyphenyl)-N-(4-(2-(piperidin-1-yl)ethoxy)phenyl)-4-propylbenzamide]","% estardiol activity, ER-α",[1],12%
same,inhibition of estradiol (E2) induced ER-α activity (luciferase expression),"[1]; COS or 293 cells, with estrogen",inhibited estrogen stimulated luciferase expression
"Cc1cccc(CN(c2ccc(O)cc2)c2ccc(O)cc2)c1C [Compound 10t, 4,4′-(2,3-dimethyl-benzylazanediyl)diphenol]",IC50,[2],17 nM
"O=C(c1ccc(O)cc1)N(c1ccc(O)cc1)C1CCCCC1 [Compound 10w, N-cyclohexyl-4-hydroxy-N-(4-hydroxyphenyl)benzamide]","% estardiol activity, ER-α",[1],21.9%
"Oc1ccc(CN(c2ccc(O)cc2)c2ccc(F)cc2)cc1 [Compound 10x, 4-((4-fluorophenyl)(4-hydroxybenzyl)amino)phenol]",EC50,[1],16 nM
"O=C(c1cccc2ccccc12)N(c1ccc(O)cc1)c1ccc(OCCN2CCCCC2)cc1 [Compound 11f, N-(4-hydroxyphenyl)-N-(4-(2-(piperidin-1-yl)ethoxy)phenyl)-1-naphthamide]",IC50,[1],69 nM
"O=C(c1cccc(F)c1)N(c1ccc(O)cc1)c1ccc(OCCN2CCCCC2)cc1 [Compound 11g, 3-fluoro-N-(4-hydroxyphenyl)-N-(4-(2-(piperidin-1-yl)ethoxy)phenyl)benzamide]",IC50,[1],16 nM
"CCCCCc1ccc(C(=O)N(c2ccc(O)cc2)c2ccc(O)cc2)cc1 [Compound 11p, N,N-bis(4-hydroxyphenyl)-4-pentylbenzamide]",EC50,[2]; [4],< 10 nM
